What is called EC50 is the concentration giving half of the maximal effect.

Like-named read-outs stand apart in the source and are kept apart here. Where only a bound is given, the exact number is not on record here.

The test system of test [1] is IL-6. The test is described as follows: IL-6 inhibition in LPS-stimulated human peripheral blood mononuclear cells (HTRF).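 For all read-outs here: IL-6 detected by HTRF with an XL665- and Cryptate-labelled anti-IL-6 antibody pair, samples run in duplicate, EC50 obtained from a four-parameter Levenberg-Marquardt curve fit.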 In kind it is cell-based. The conditions noted are these: Homo sapiens, PBMC; for inhibition at 10 µM: read-out: percent value in parentheses beside EC50 >10 μM; for EC50: Table 9, huPBMCs, LPS 50 ng/mL, 22 hours, dose-response starting from 10 μM. (In general: TR-FRET usually uses a lanthanide donor and a delayed reading to cut background.)
Description: After 22 hour incubation, a mixture of anti-IL6 XL665 and anti-IL-6 Cryptate diluted in reconstitution buffer (Catalog #62IL6PEC, Cisbio Inc., Bedford, Mass.) was added to each well. […] All samples were processed in duplicate. […] EC50 was determined using software generated by Dotmatics Limited (Windhill Bishops Stortford Herts, UK) using the Levenberg-Marquardt 4 parameter fitting procedure with finite different gradients.

Test [2] deals with SW480 colon carcinoma cells. The test is described as follows: Cell viability assay (CellTiter-Glo). In kind it is cell-based, human. The note with it: Homo sapiens; for EC50: 96 h, SW480 cells, CellTiter-Glo, four days incubation; for inhibition at 10 µM: SW480, read-out: percent inhibition at 10 μM.
Test [3] relates to Wnt pathway (Sp5-Luc reporter, TCF/LEF binding sites) in SW480 colon carcinoma cells. The test is described as follows: Screening assay for Wnt activity: Sp5-Luc reporter gene assay.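 For all read-outs here: firefly luciferase luminescence read in stably transduced SW480 cells carrying the Sp5 promoter reporter with eight TCF/LEF sites, compounds given in 0.1% DMSO final.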 In kind it is cell-based, human. The note with it: Homo sapiens; for EC50: Sp5-Luc reporter, SW480 cells, 36 to 48 hours; for inhibition at 10 µM: SW480, read-out: percent inhibition at 10 μM. Background: A reporter such as luciferase makes a cellular process visible.
Description: The screening assay for Wnt activity is described as follows.
Following incubation, 15 μl of BriteLite Plus luminescence reagent (Perkin Elmer) was added to each well of the 384-well assay plates. The plates were placed on an orbital shaker for 2 min and then luminescence was quantified using the Envision (Perkin Elmer) plate reader.

Test [4] concerns the target recombinant GSK3β kinase (Homo sapiens (Human), UniProt P49841). The test is described as follows: GSK3β kinase assay (Ser/Thr 09 peptide Z-lyte FRET).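 Note: kinase activity read as coumarin to fluorescein emission ratio, 11-point threefold dilutions from 10 µM to 0.0003 µM in duplicate, unphosphorylated and phosphorylated peptide as 0% and 100% controls.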 In kind it is biochemical. The note with it: 46 μM ATP, 1 h room temperature.
In test [5] the test system is α-smooth muscle actin (αSMA) positive LL29 cells. The experiment in a line: Inhibition of fibrotic process: αSMA in TGF-β1 treated primary human fibroblasts from IPF patients.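 For all read-outs here: controls were TGF-β1 stimulated wells with DMSO vehicle (positive) and cells given DMSO alone (negative), cultured in F12 medium with 1% fetal bovine serum.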 The class given is cell-based. The conditions noted are these: Homo sapiens, Fibroblast; for EC50: 96 h, Table 8, LL29 fibroblasts from IPF patients, TGF-β1 20 ng/mL, 4 days, dose-response 10 μM to 0.94 nM; for inhibition at 10 µM: read-out: percent value in parentheses beside EC50 >10 μM.

Test [6] has as its target recombinant DYRK1A kinase (Homo sapiens (Human), UniProt Q13627). The experiment in a line: DYRK1A kinase assay (Ser/Thr 18 peptide Z-lyte FRET).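 Note: Read-out is the coumarin to fluorescein emission ratio, referenced to unphosphorylated (0%) and phosphorylated (100%) Ser/Thr 18 peptide controls, values from dose-response curves by non-linear regression.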 In kind it is biochemical. The conditions noted are these: 30 μM ATP, 1 h room temperature.
Test [7] relates to Tau phosphorylation at Ser396 (pSer396). The test is described as follows: Tau phosphorylation assay (pSer396 ELISA / western blot) in SH-SY5Y cells.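 Note: EC50 for reduction of Tau pSer396 in lysed cells, measured by colorimetric ELISA or chemiluminescent western blot, both using the same pSer396 antibody.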 The note with it: Homo sapiens, read-out: pSer396 Tau EC50. In kind it is cell-based, human. Background: In an ELISA, binding on a coated surface is turned into a signal by an enzyme label.
[8] abbreviates: SH-SY5Y cells, overnight (16-18 h) exposure.

Chain of recombinant GSK3β kinase (P49841 whole entry): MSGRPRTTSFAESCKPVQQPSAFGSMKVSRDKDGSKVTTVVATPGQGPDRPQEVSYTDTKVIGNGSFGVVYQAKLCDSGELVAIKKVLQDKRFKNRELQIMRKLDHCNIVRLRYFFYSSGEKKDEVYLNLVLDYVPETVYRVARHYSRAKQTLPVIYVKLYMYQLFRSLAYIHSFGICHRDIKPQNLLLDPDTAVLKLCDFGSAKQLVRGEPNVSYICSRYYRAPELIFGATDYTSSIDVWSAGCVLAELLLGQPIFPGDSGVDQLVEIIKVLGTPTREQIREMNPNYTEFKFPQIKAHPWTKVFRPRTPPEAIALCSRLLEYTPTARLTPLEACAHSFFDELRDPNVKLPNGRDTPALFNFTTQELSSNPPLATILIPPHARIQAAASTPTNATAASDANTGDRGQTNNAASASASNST

Take `[2H]C([2H])([2H])n1cc(-c2cc(F)c3cnc(NC(=O)CN4CCCCC4)cc3c2)cn1` [Compound 1016, N-(8-Fluoro-6-(1-(methyl-d3)-1H-pyrazol-4-yl)isoquinolin-3-yl)-2-(piperidin-1-yl)acetamide]: the inhibition at 10 µM in test [1] came out at 5.4%. Further, the EC50 was more than 10000 nM in test [1]; 6140 nM in test [2]; 4060 nM in test [3]; 87 nM in test [4]; 2130 nM in test [5]; 29.1 nM in test [6]. For the same compound, in test [7] (setting [8]), the EC50 came out at 631 nM.
Regarding `Cn1cc(-c2ccc3cnc(NC(=O)[C@H]4CC[C@H](N(C)C)CC4)cc3c2)cn1` [Compound 327, trans-4-(Dimethylamino)-N-(6-(1-methyl-1H-pyrazol-4-yl)isoquinolin-3-yl)cyclohexane-1-carboxamide], the 50% effective concentration (EC50) in test [1] amounted to 947 nM; in test [2], 1580 nM; in test [3], 258 nM; in test [4] it was 66 nM; in test [5], 58 nM; in test [6] it was 1.7 nM. The EC50 in test [7] (setting [8]) is 411 nM.
Regarding `O=C(Nc1cc2cc(-c3cnco3)ccc2cn1)[C@H]1CC[C@@H](N2CCOCC2)CC1` [Compound 979, cis-4-Morpholino-N-(6-(oxazol-5-yl)isoquinolin-3-yl)cyclohexane-1-carboxamide], the EC50 in test [1] was found to be 4300 nM; in test [2], 2220 nM; in test [3] it was 4090 nM; in test [4] it was 791 nM; in test [5] it was 1030 nM; in test [6], 10 nM. For the same compound, the EC50 in test [7] (setting [8]) was found to be 569 nM.
In the case of `Cn1cc(-c2ccc3cnc(NC(=O)C4CCN(Cc5ccccn5)CC4)cc3c2)cn1` [Compound 359, N-(6-(1-Methyl-1H-pyrazol-4-yl)isoquinolin-3-yl)-1-(pyridin-2-ylmethyl) piperidine-4-carboxamide], the EC50 stood at 1030 nM in test [1]; 261 nM in test [2]; 669 nM in test [3]; 82 nM in test [4]; 127 nM in test [5]; 3 nM in test [6]. The EC50 in test [7] (setting [8]) worked out at 521 nM.
Turning to `Cn1cc(-c2ccc3cnc(NC(=O)C4CCN(CC5(C)COC5)CC4)cc3c2)nn1` [Compound 472, N-(6-(1-Methyl-1H-1,2,3-triazol-4-yl)isoquinolin-3-yl)-1-((3-methyloxetan-3-yl)methyl)piperidine-4-carboxamide], the EC50 in test [1] was 5410 nM; in test [2] it was 5090 nM; in test [3] it was 382 nM; in test [4], 8 nM; in test [5], 243 nM; in test [6] it was 3.2 nM. Further, the EC50 in test [7] (setting [8]) turned out to be 200 nM.
`Cc1ncc(-c2ccc3cnc(NC(=O)CN4C[C@H]5C[C@@H]4CO5)cc3c2)s1` [Compound 996, 2-((1R,4R)-2-Oxa-5-azabicyclo[2.2.1]heptan-5-yl)-N-(6-(2-methylthiazol-5-yl)isoquinolin-3-yl)acetamide]: the figures for the inhibition at 10 µM in test [1] and in test [2] were 10.6% and 32.2%, respectively. Also, the 50% effective concentration (EC50) in test [1] is more than 10000 nM; in test [2] it was more than 10000 nM; in test [3] it was 4390 nM; in test [4], 141 nM; in test [5], 1200 nM; in test [6], 13.4 nM. In test [7] (setting [8]), the EC50 came to 3100 nM.
Take `CN1CCC(C(=O)Nc2cc3cc(-c4cnn(C)c4CO)ccc3cn2)CC1` [Compound 985, N-(6-(5-(Hydroxymethyl)-1-methyl-1H-pyrazol-4-yl)isoquinolin-3-yl)-1-methylpiperidine-4-carboxamide]: the EC50 in test [1] was 3890 nM; in test [2], 1720 nM; in test [3], 1160 nM; in test [4], 283 nM; in test [5], more than 10000 nM; in test [6] it was 4.1 nM. In addition, the concentration for a half-maximal effect (EC50) in test [7] (setting [8]) is 3200 nM. The inhibition at 10 µM in test [5] is 38%.
Regarding `Cn1cncc1-c1ccc2cnc(NC(=O)C3CNC3)cc2c1` [Compound 535, N-(6-(1-Methyl-1H-imidazol-5-yl)isoquinolin-3-yl)azetidine-3-carboxamide], the inhibition at 10 µM is 3.1% in test [1], 42% in test [2], 44.9% in test [3] and 17.7% in test [5]. The EC50 in test [1] is more than 10000 nM; in test [2], more than 10000 nM; in test [3], more than 10000 nM; in test [4], 87 nM; in test [5], more than 10000 nM; in test [6], 4.5 nM. Further, the concentration giving a half-maximal response (EC50) in test [7] (setting [8]) was determined as 6200 nM.
As for `Cn1cncc1-c1ccc2cnc(NC(=O)C3(F)CC3)cc2c1` [Compound 521, 1-Fluoro-N-(6-(1-methyl-1H-imidazol-5-yl)isoquinolin-3-yl)cyclopropane-1-carboxamide], the EC50 was 3250 nM in test [1]; 3630 nM in test [2]; 1800 nM in test [3]; 234 nM in test [4]; 1990 nM in test [5]; 1.6 nM in test [6]. The EC50 in test [7] (setting [8]) stood at 1100 nM.
With `CN1CCn2c(-c3ccc4cnc(NC(=O)C5CC5)cc4c3)cnc2C1` [Compound 266, N-(6-(7-Methyl-5,6,7,8-tetrahydroimidazo[1,2-a]pyrazin-3-yl)isoquinolin-3-yl)cyclopropanecarboxamide], the half-maximal effective concentration (EC50) in test [1] was found to be 1930 nM; in test [2] it was 6320 nM; in test [3], 2440 nM; in test [4], 38 nM; in test [5] it was 697 nM; in test [6], 17.4 nM. In test [7] (setting [8]), the EC50 came to 1200 nM.
On to `CO[C@H]1CC[C@H](C(=O)Nc2cc3cc(-c4cnn(C)c4)ccc3cn2)CC1` [Compound 4, trans-4-Methoxy-N-(6-(1-methyl-1H-pyrazol-4-yl)isoquinolin-3-yl) cyclohexane-1-carboxamide], for which the half-maximal effective concentration (EC50) was found to be 1130 nM in test [1]; 1940 nM in test [2]; 983 nM in test [3]; 80 nM in test [4]; 68 nM in test [5]; 1.8 nM in test [6]. In addition, the EC50 in test [7] (setting [8]) is 671 nM.
Take `Cn1cc(-c2ccc3cnc(NC(=O)C4CCN(CCO)CC4)cc3c2)cn1` [Compound 358, 1-(2-Hydroxyethyl)-N-(6-(1-methyl-1H-pyrazol-4-yl)isoquinolin-3-yl) piperidine-4-carboxamide]: the EC50 in test [1] was determined as 613 nM; in test [2] it was 2370 nM; in test [3], 413 nM; in test [4], 80 nM; in test [5], 145 nM; in test [6] it was 0.6 nM. Besides, the EC50 in test [7] (setting [8]) was found to be 353 nM.
`CC(C)CN1CCN(CC(=O)Nc2cc3cc(-c4cnn(C)c4)ccc3cn2)CC1` [Compound 272, 2-(4-Isobutylpiperazin-1-yl)-N-[6-(1-methylpyrazol-4-yl)-3-isoquinolyl]acetamide]: the EC50 in test [1] stood at 3100 nM; in test [2], 5870 nM; in test [3] it was 3750 nM; in test [4], 105 nM; in test [5], 2540 nM; in test [6], 14 nM. Also, the EC50 in test [7] (setting [8]) came out at 1660 nM.
As for `CC(C)CN1CCC(F)(C(=O)Nc2cc3cc(-c4cn(C)nn4)ccc3cn2)CC1` [Compound 281, 4-Fluoro-1-isobutyl-N-(6-(1-methyl-1H-1,2,3-triazol-4-yl)isoquinolin-3-yl) piperidine-4-carboxamide], the values for the inhibition at 10 µM in test [1] and in test [3] were 0% and 47%, respectively. The concentration giving a half-maximal response (EC50) in test [1] is more than 10000 nM; in test [2], more than 10000 nM; in test [3], more than 10000 nM; in test [4] it was 71 nM; in test [5], 486 nM; in test [6], 8.1 nM. The EC50 in test [7] (setting [8]) was determined as 518 nM.
On to `Cn1cc(-c2ccc3cnc(NC(=O)CN4C5CCC4CC5)cc3c2)nn1` [Compound 513, 2-(7-Azabicyclo[2.2.1]heptan-7-yl)-N-(6-(1-methyl-1H-1,2,3-triazol-4-yl)isoquinolin-3-yl)acetamide], for which, in test [1], the inhibition at 10 µM worked out at 14.5%. The EC50 in test [1] is more than 10000 nM; in test [2], 9060 nM; in test [3] it was 6430 nM; in test [4], 43 nM; in test [5], 1350 nM; in test [6], 10.4 nM. In addition, the EC50 in test [7] (SH-SY5Y) was found to be 864 nM.
Consider `[2H]C([2H])([2H])n1cc(-c2ccc3cnc(NC(=O)CN4CCN(C)CC4)cc3c2)cn1` [Compound 1014, N-(6-(1-(Methyl-d3)-1H-pyrazol-4-yl)isoquinolin-3-yl)-2-(4-methylpiperazin-1-yl)acetamide], for which the EC50 stood at 3200 nM in test [1]; 5420 nM in test [2]; 2360 nM in test [3]; 96 nM in test [4]; 695 nM in test [5]; 9.4 nM in test [6]. Besides, in test [7] (setting [8]), the EC50 turned out to be 767 nM.

These data come from patent US10287267B2, “Isoquinolin-3-yl carboxamides and preparation and use thereof” (Samumed, LLC, priority 2016, dated 2019).
